Like-named read-outs stand apart in the source and are kept apart here.
Tests used:
influenza virus A H7N1 = details: cited from earlier work
[1] = Cytotoxicity assay (MTT) in MDCK cells; assay type: cell-based, Canine; details: dog, read-out: CC50 (50% cytotoxic concentration)
Protocol: Initially, maximum non-toxic concentrations were determined for compounds 1–22 to exclude their non-specific antiviral activity. The in vitro cytotoxicity of the tested compounds (CC50) was studied in the normal Madin-Darby Canine Kidney cell line (MDCK) by the MTT ((3-(4,5-dimethylthiazol-2-yl)-2,5-diphenyltetrazolium bromide) test. The highest concentration tested was […]. The cytotoxicity of oseltamivir carboxylate and rimantadine was also evaluated as these have been used as reference drugs in antiviral tests. Compounds at concentration that kills no more than 50% of cells (CC50) were used for further investigation of antiviral activity.
The MDCK cells were seeded onto 96-well culture plates (10^4 cells per well) and incubated at 36 °C in 5% CO2 until continuous monolayer formation. To assess the toxicity of the compounds, a series of their 3-fold dilutions, at concentrations of 300 to 3.7 μg/mL in Eagle’s Minimal Essential Medium (MEM), were prepared. The dilutions were added to the wells of the plates. The cells were incubated for 72 h at 36 °C in a CO2 incubator under 5% CO2. Further, a microtetrazolium (MTT) assay was performed on the 96-well plates. The cells were washed 2 times with saline (0.9% NaCl), and 100 μL/well of MTT solution [3-(4,5-dimethylthiazol-2-yl)-2,5-diphenyltetrazolium bromide] at a concentration of […] in MEM was added. The plates were incubated for 1 h at 36 °C, the liquid was removed, and dimethylsulfoxide (DMSO) (0.1 mL per well) was added. The optical density (OD) of the cells was measured on a Thermo Multiskan FC spectrophotometer (Thermo Fisher Scientific, Waltham, MA, USA) at a wavelength of 540 nm. Based on the obtained data, the CC50, the concentration of the compound that destroys 50% of the cells in the culture, was calculated for each specimen.

[2] = tested on: influenza virus A/Puerto Rico/8/34 (H1N1); assay: organism not typed; assay type: cell-based; details: for IC50: read-out: IC50 (50% inhibitory concentration)
DENV-2: 00St22A = assay: Plaque reduction neutralization test (PRNT), DENV-2; assay type: cell-based, Dengue virus; details: DENV-2, BHK-21 cells; for IC50: Dengue virus, DENV2, read-out: PRNT50 DENV-2 (concentration that reduces plaque number by 50%)
From the text: (§1) The dengue viruses used in this study were DENV-1:VN/2017/D7709, DENV-2: 00St22A, DENV-3: SMLC50, DENV-4: SLMC318. The virus strains were supplied by the Vietnam National Institute of Hygiene and Epidemiology. The four above serotypes of the Dengue virus were propagated in BHK-21 cell lines (provided by Nagasaki University, Japan) in Eagle’s Minimum Essential Medium (EMEM; Gibco Thermo Fischer Scientific, Waltham, MA, USA) with 2% Fetal Bovine Serum (FBS; Sigma Aldrich, St. Louis, MO, USA) at 37 °C under 5% CO2 atmosphere for 5–7 days. The BHK-21 cells were cultured using 10% FBS EMEM medium.
(§2) EMEM (1 mL) containing FBS (2%) was added into each of 24-well plates (with a concentration of […] –1.0 × 10^4 cells/well). The well plates were shaken to induce the formation of identical cell layers. Afterwards, the wells were incubated at 37 °C under 5% CO2 atmosphere overnight until the cell concentration reached at 70–90%. In case this concentration was not yet reached, the incubation was allowed to continue for a further 1 to 2 days.
(§3) The compounds 4–8 and 23 were totally dissolved in EMEM with a concentration of 500 μg/mL, which was serially diluted with step 2 with EMEM containing 2% FBS; the solutions of compounds were kept at 2–8 °C. The viruses were used at the dose of 2.5 × 10^3 PFU/mL in EMEM containing 2% FBS. The virus (100 μL) was added to all the diluted samples. The virus-compounds mixtures were incubated at 37 °C under 5% CO2 atmosphere for 60 min; afterwards, the medium in all wells of the plates was removed. The virus-compounds mixture (50 μL) was added into the wells, according to the designed experimental test concentration/dilution.
(§4) The viral medium was used as the negative control. EMEM (2 mL) containing methyl cellulose (1%) was added and re-incubated at 37 °C under 5% CO2 atmosphere for 4–6 days. The typical DENV-1 and DENV-4-induced CPE appeared after 4 days of incubation, while the durations for DENV-2 and DENV-3 were 5 and 6 days, respectively. These times of incubation allowed the formation of the plaques to be visually observable and countable. The plaques can be observed under a microscope or by eyes. The cells were fixed with formalin (3.7%) for 1 h at room temperature, washed with water, and stained with crystal violet (0.25%) for 1 h at room temperature. Finally, the plaques were counted.

DENV-4: SLMC318 = assay: Plaque reduction neutralization test (PRNT), DENV-4; assay type: cell-based, Dengue virus; details: DENV-4, BHK-21 cells; for IC50: Dengue virus, DENV4, read-out: PRNT50 DENV-4 (concentration that reduces plaque number by 50%)
From the text: as §1, §2, §3, §4

[3] = Cytotoxic assay (MTT) against BHK-21 cells; assay type: cell-based; details: hamster, read-out: CC50 (50% cytotoxic concentration)
Protocol: The cytotoxic evaluation of the extracts was carried out against the BHK-21 cells. Under cultural conditions of EMEM with FBS (10%), the assaying cells were grown in 96-well bottom-transparent plates at a density of 6 × 10^4 cells/mL per well. The compounds that had been dissolved in dimethyl sulfoxide (DMSO) with six different concentrations (500, 250, 125, 62.5, 31.25, 15.625 μg/mL) were added into each well; each concentration was used in triplicate. After incubation at 37 °C under 5% CO2 atmosphere for 48 h, MTT (0.5 mg/mL) was added into each well; afterwards, 4 h incubation was carried out. The liquid in the wells was removed, and DMSO ([…]) was added to each well. The optical absorbance was recorded on a microplate reader at λ = 570 nm (Genious Tecan, Grödig, […]). The optical density in the wells was plotted against the logarithm of compound concentration, and 50% cytotoxic concentration (CC50), the compound concentration decreasing the optical density twice comparing to control wells, was calculated using the appropriate software (Table Curve 2Dv4.USA).

DENV-3: SMLC50 = assay: Plaque reduction neutralization test (PRNT), DENV-3; assay type: cell-based, Dengue virus; details: DENV-3, BHK-21 cells; for IC50: Dengue virus, DENV3, read-out: PRNT50 DENV-3 (concentration that reduces plaque number by 50%)
From the text: as §1, §2, §3, §4

DENV-1:VN/2017/D7709 = assay: Plaque reduction neutralization test (PRNT), DENV-1; assay type: cell-based, Dengue virus; details: DENV-1, BHK-21 cells; for IC50: Dengue virus, DENV1, read-out: PRNT50 DENV-1 (concentration that reduces plaque number by 50%)
From the text: as §1, §2, §3, §4

Flu A H1N1 strain = tested on: Flu A H1N1 strain; design: method as in doi:10.1177/1934578X1801301008; details: read-out: IC50 against Flu A H1N1 strain; cited from earlier work

Compound	CC50 at 72 h [1]	SI (selectivity index, CC50/IC50) [2]	IC50 ([2]; MDCK, 72 h)	melting point	IC50 (DENV-2: 00St22A)	IC50 (DENV-4: SLMC318)	CC50 at 48 h [3]	IC50 (DENV-3: SMLC50)	IC50 (DENV-1:VN/2017/D7709)	also measured
betulonic acid L-leucine-amide	–	–	–	–	–	–	–	–	–	suppression of the influenza virus A H7N1 (influenza virus A H7N1): 90%; EC50 (influenza virus A H7N1; influenza virus A H7N1): 2.17 µM
COC(=O)[C@]12CCC(C)(C)CC1C1=CCC3[C@@]4(C)CC[C@H](NC(=O)c5ccccc5C(=O)O)C(C)(C)C4CC[C@@]3(C)[C@]1(C)CC2 (stereo partly drawn) [Compound 22, Methyl 3β-N-phthalyl-olean-12(13)-en-28-oate]	> 486 µM	>42	12 ± 2 µM	240 °C	–	–	–	–	–	–
CC(N)C12CC3CC(CC(C3)C1)C2 (centres unmarked) [Rimantadine, reference compound]	344 ± 19 µM	6	–	–	–	–	–	–	–	–
CC1(C)CC[C@]2(C(=O)N3CCCNCC3)CC[C@]3(C)C(=CCC4[C@@]5(C)CCC(=O)C(C)(C)C5CC[C@]43C)C2C1 (some centres unmarked) [Compound 2, N-(3-Oxo-olean-12(13)-en-28-oyl)-homopiperazine Amide]	> 560 µM	>27	20 to 21 µM	174 °C	–	–	–	–	–	IC50 [2]: 21 ± 3 µM
CCOC(=O)CNC(=O)CN(Cc1ccccc1)C(=O)[C@]12CCC(C)(C)CC1C1=CCC3[C@@]4(C)Cc5c([nH]c6ccccc56)C(C)(C)C4CC[C@@]3(C)[C@]1(C)CC2 (some centres unmarked) [Compound 10, Ethyl N-Benzyl-N-2,3-indolo-olean-12-en-28-glycylglycinate]	121 ± 9 µM	3	39 ± 4 µM	197 to 199 °C	–	–	–	–	–	–
CC1(C)CC[C@]2(C(=O)NCCCNCCCCNCCCN)CC[C@]3(C)C(=CCC4[C@@]5(C)Cc6c([nH]c7ccccc67)C(C)(C)C5CC[C@]43C)C2C1 (some centres unmarked) [Compound 8, N-([3,2b]-Indolo-olean-12(13)-en-28-oyl)-spermine Amide]	> 140 µM	>5	27 ± 4 µM	138 °C	347 ± 21 µM	336 ± 28 µM	> 351 µM	> 351 µM	336 ± 22 µM	PRNT50 DENV-2 (concentration that reduces plaque number by 50%) (DENV-2: 00St22A): inactive; PRNT50 DENV-4 (concentration that reduces plaque number by 50%) (DENV-4: SLMC318): inactive; PRNT50 DENV-3 (concentration that reduces plaque number by 50%) (DENV-3: SMLC50): inactive; PRNT50 DENV-1 (concentration that reduces plaque number by 50%) (DENV-1:VN/2017/D7709): inactive
CC1(C)CC[C@]2(C(=O)N3CCCNCC3)CC[C@]3(C)C(=CCC4[C@@]5(C)Cc6c([nH]c7ccccc67)C(C)(C)C5CC[C@]43C)C2C1 (some centres unmarked) [Compound 7, N-([3,2b]-Indolo-olean-12(13)-en-28-oyl)-homopiperazine Amide]	–	–	–	> 200 °C	105 ± 7 µM	371 ± 16 µM	> 410 µM	> 410 µM	164 ± 11 µM	–
CC1(C)CC[C@]2(C(=O)N3CCCN(CC#N)CC3)CC[C@]3(C)C(=CCC4[C@@]5(C)CCC(=O)C(C)(C)C5CC[C@]43C)C2C1 (some centres unmarked) [Compound 11, N-(3-Oxo-olean-12(13)-en-28-oyl)-4′-cyanomethyl-homopiperazine Amide]	> 522 µM	>12	45 ± 6 µM	191 °C	–	–	–	–	–	–
CCC(CC)O[C@@H]1C=C(C(=O)O)C[C@H](N)[C@H]1NC(C)=O [Oseltamivir carboxylate, reference compound]	> 200 µM	>667	0.3 ± 0.01 µM	–	–	–	–	–	–	–
CCOC(=O)CNC(=O)CN(Cc1ccccc1)C(=O)[C@]12CCC(C)(C)CC1C1=CCC3[C@@]4(C)CCC(=O)C(C)(C)C4CC[C@@]3(C)[C@]1(C)CC2 (some centres unmarked) [Compound 9, Ethyl N-Benzyl-N-3-oxo-olean-12-en-28-glycylglycinate]	> 437 µM	>11	41 ± 5 µM	245 to 247 °C	–	–	–	–	–	–
Lupane 3,4-seco-3,28-bis-methylpiperazine-amide	–	–	–	–	–	–	–	–	–	IC50 (Flu A H1N1 strain): 27 µM
CC1(C)CC[C@]2(CO)CC[C@]3(C)C(NCCC4[C@@]5(C)CC[C@H](O)C(C)(C)C5CC[C@]43C)C2C1 (some centres unmarked) [Compound 23, C-azepano-erythrodiol]	–	–	–	–	68 ± 3 µM	108 ± 5 µM	> 544 µM	228 ± 16 µM	107 ± 7 µM	–
CC1(C)CC[C@]2(C(=O)NCCN3CCNCC3)CC[C@]3(C)C(=CCC4[C@@]5(C)CCC(=O)C(C)(C)C5CC[C@]43C)C2C1 (some centres unmarked) [Compound 6, N-(3-Oxo-olean-12(13)-en-28-oyl)-aminoethylpiperazine Amide]	442 ± 31 µM	5	82 ± 10 µM	175 °C	86 ± 5 µM	110 ± 8 µM	111 ± 8 µM	> 111 µM	67 ± 4 µM	–
